Key:
[1] = rat, in vivo
Protocol: Mature female Sprague-Dawley rats were used for the experiment. 1 mg of the microparticulate danazol was delivered in a volume of 50 μl to the vaginal vault and the animals sacrificed at the times noted below. The uterus and ovaries were separately homogenized and blood was drawn. All tissues and biological samples were processed. Danazol was extracted and assayed by HPLC methodology.
Danazol was extracted from serum and tissue hexane/chloroform 80/20. For tissues, 1 ml aliquote of each homogenate was taken. The extracted danazol was reconstituted in a water/acetonitrile mobile phase and a Beckman Ultrasphere 5 micron, 4.6 mm×15 cm reverse phase column (C-18 RP) was used for all the HPLC analyses. A danazol recovery study was conducted using danazol drug product. The recovery was determined by comparing the extracted signal with unextracted signal.

[2] = high doses, up to 800 mg daily; cited from earlier work

## C#C[C@]1(O)CC[C@H]2[C@@H]3CCC4=Cc5oncc5C[C@]4(C)[C@H]3CC[C@@]21C [Danazole, Danazol]
[1]
  Serum drug levels (in words): almost undetectable
[2]
  Adverse side effects: adverse side effects are seen

From patent publication US6652874B2, “Pharmaceutical preparations and methods for their regional administration” (FemmePharma, priority 1997, dated 2003)
